pIC50: −log10 of the molar value. Read-outs that look alike come from different tables or passages of the source.
Assays:
[1] = tested on: TC1; experiment: MTT cytotoxicity assay, TC1; format: cell-based; settings: TC-1, TC1, 72 h
Description: (§1) All cell lines were obtained from the American Type Culture Collection (ATCC) and cultured in the specified medium supplemented with 10% fetal bovine serum, 100 IU/mL penicillin, and 100 μg/mL streptomycin at 37°C in a humidified 5% CO2/95% air incubator. Synthesis of new compounds is described in S1 File, and >95% purity of RA475, Up284 and its analogs were confirmed by NMR and MS. To assess drug cytotoxicity, cells were seeded at 2,500 cells/well (10,000 cells/well for MM lines) in 100 μL medium in 96-well plate as triplicates and after 24 h treated with compounds for a further 72 h. To assess cytotoxicity, the cells were incubated for 2 h at 37°C according to the manufacturer’s protocol with the Thiazolyl Blue Tetrazolium Bromide (20 μL/well of 5 mg/mL stock solution in water) (Sigma, M5655) and A570 measured using a Benchmark Plus microplate spectrophotometer (BIO-RAD). IC50 was estimated using Graphpad Prism 7 software.

[2] = tested on: ID8VegF; experiment: MTT cytotoxicity assay, ID8VegF; format: cell-based; settings: 72 h
Description: as §1

[3] = tested on: SKOV3; experiment: MTT cytotoxicity assay, SKOV3; format: cell-based; settings: Homo sapiens, SK-OV-3, SKOV3, 72 h
Description: as §1

[4] = tested on: TC1-Ova; experiment: MTT cytotoxicity assay, TC1-Ova; format: cell-based; settings: 72 h
Description: as §1

[5] = tested on: B6-Ova; experiment: MTT cytotoxicity assay, B6-Ova; format: cell-based; settings: 72 h
Description: as §1

[6] = tested on: SKMEL2; experiment: MTT cytotoxicity assay, SKMEL2; format: cell-based; settings: Homo sapiens
Description: as §1

[7] = tested on: PEO4; experiment: MTT cytotoxicity assay, PEO4; format: cell-based; settings: Homo sapiens, PEO4, 72 h
Description: as §1
We elected to focus on RA475 and expanded the analysis in a larger panel of cell lines including those from common cancer types and normal tissues. […] This panel included another pair of cell lines isolated from another ovarian cancer patient with drug-resistant disease (PEO4) and pre-treatment (PEO1), and both were similarly sensitive to RA475.

[8] = tested on: A549; experiment: MTT cytotoxicity assay, A549; format: cell-based; settings: Homo sapiens, A549, 72 h
Description: as §1

[9] = tested on: Calu-1; experiment: MTT cytotoxicity assay, Calu-1; format: cell-based; settings: Homo sapiens, Calu-1, 72 h
Description: as §1

[10] = tested on: HeLa; experiment: MTT cytotoxicity assay, HeLa; format: cell-based; settings: Homo sapiens, 72 h
Description: as §1

[11] = tested on: BT549; experiment: MTT cytotoxicity assay, BT549; format: cell-based; settings: Homo sapiens, BT-549, BT549, 72 h
Description: as §1

[12] = tested on: MCF7; experiment: MTT cytotoxicity assay, MCF7; format: cell-based; settings: Homo sapiens, MCF7, 72 h
Description: as §1

[13] = GSH reactivity assay; format: physicochemical; settings: for Average Area Ratio Normalized: with GSH divided by without GSH; for remaining at 1.5 h, 20 μM: pH 7.4
Description: Test compounds (20 μM, final organic solvent concentration 10%) were incubated with 1 mM GSH in phosphate buffer (100 mM), pH 7.4 at 37°C, shaking at 300 rpm. In the control reactions (“without GSH”), the GSH was substituted with phosphate buffer. Five time points over 1.5 h were analyzed (0, 0.33, 0.66, 1 and 1.5 h). The reactions were stopped by adding 50 μL aliquots of the reaction mixture to 9 volumes of methanol: water: formic acid (10:10:0.04) with internal standard (IS). Samples were analyzed using HPLC system coupled with a tandem mass spectrometer. Average (triplicate) area ratios were calculated. GSH reactivity was calculated taking into account the possible instability of the compound during incubation. All calculations were performed using normalized data obtained by dividing the average area ratio of the test compound incubated with GSH by the average area ratio of the test compound incubated without GSH. Natural logarithms of the results were fitted to linear regression, and half-life (t1/2) was calculated as: t1/2=ln2/-slope

[14] = 0 h, 1 mM GSH, 20 μM compound, pH 7.4, 37°C
[15] = 1 mM GSH in phosphate buffer, 1.5 h, read-out: % Remaining with GSH, normalized
[16] = 1 mM GSH in phosphate buffer, 1 mM GSH, pH 7.4, 37°C, read-out: t1/2 with GSH, normalized (converted)
[17] = phosphate buffer, pH 7.4, 37°C, read-out: t1/2 w/o GSH
[18] = phosphate buffer, 1.5 h, read-out: % Remaining w/o GSH

With `Cl.Cl.N#Cc1ccc(/C=C2/C(=O)/C(=C/c3ccc(C#N)cc3)C23CCN(C(=N)N)CC3)cc1` [RA475, 1,3-bis((E)-4-cyanobenzylidene)-2-oxo-7-azaspiro[3.5]nonane-7-carboximidamide dihydrochloride] as the molecule, how does the pIC50 [1] read?
Its pIC50 is 6.66.

What about the pIC50 [2] of the same molecule?
The pIC50 was 5.74.

What about the pIC50 [3] of the same molecule?
The pIC50 was 6.53.

And the pIC50 [4]?
The pIC50 was 6.82.

What about the pIC50 [5] of the same molecule?
Its pIC50 is 7.15.

What about the pIC50 ([6]; SK-MEL-2, 72 h) of the same molecule?
The pIC50 was 6.81.

And the pIC50 [7]?
The pIC50 was 6.59.

And the pIC50 [8]?
Its pIC50 is 6.66.

What about the pIC50 [9] of the same molecule?
The pIC50 was 6.62.

What about the pIC50 [10] of the same molecule?
Its pIC50 is 6.67.

What about the pIC50 [11] of the same molecule?
The pIC50 was 6.64.

And the pIC50 [12]?
Its pIC50 is 6.13.

What about the “time within which compound reacted with GSH” value [13] of the same molecule?
The value was ≤ 30 min.

And the “Average Area Ratio with GSH” value [13, 14]?
The value was 1.00E+02.

And the “Average Area Ratio without GSH” value ([13]; 0 h, phosphate buffer)?
The value was 1.00E+02.

And the “Average Area Ratio Normalized” value ([13]; 0 h)?
Its value is 9.10E+01.

What about the remaining at 1.5 h, 20 μM [13, 15] of the same molecule?
The remaining at 1.5 h, 20 μM was 8%.

What about the half-life at 20 μM [13, 16] of the same molecule?
Its half-life at 20 μM is 12.2 min.

What about the “Average Area Ratio with GSH” value ([13]; 0.33 h, 1 mM GSH) of the same molecule?
Its value is 2.00E+01.

And the “Average Area Ratio without GSH” value ([13]; 0.33 h, phosphate buffer)?
Its value is 9.44E+01.

And the “Average Area Ratio Normalized” value ([13]; 0.33 h)?
The value was 1.93E+01.

What about the “Average Area Ratio with GSH” value ([13]; 0.66 h, 1 mM GSH) of the same molecule?
The value was 1.02E+01.

What about the “Average Area Ratio without GSH” value ([13]; 0.66 h, phosphate buffer) of the same molecule?
Its value is 9.60E+01.

What about the “Average Area Ratio Normalized” value ([13]; 0.66 h) of the same molecule?
Its value is 9.62E+00.

What about the “Average Area Ratio with GSH” value ([13]; 1 h, 1 mM GSH) of the same molecule?
The value was 8.18E+00.

And the “Average Area Ratio without GSH” value ([13]; 1 h, phosphate buffer)?
Its value is 9.22E+01.

What about the “Average Area Ratio Normalized” value ([13]; 1 h) of the same molecule?
The value was 8.07E+00.

And the “Average Area Ratio with GSH” value ([13]; 1.5 h, 1 mM GSH)?
The value was 7.92E+00.

And the “Average Area Ratio without GSH” value ([13]; 1.5 h, phosphate buffer)?
The value was 9.03E+01.

And the “Average Area Ratio Normalized” value ([13]; 1.5 h)?
Its value is 7.98E+00.

What about the half-life at 20 μM [13, 17] of the same molecule?
The half-life at 20 μM was > 360 min.

And the remaining at 1.5 h, 20 μM [13, 18]?
The remaining at 1.5 h, 20 μM was 90%.

With `N#Cc1ccc(/C=C2/C(=O)/C(=C/c3ccc(C#N)cc3)C23CCNCC3)cc1` [Up284, reference compound] as the molecule, how does the pIC50 [1] read?
The pIC50 was 6.85.

And the pIC50 [2]?
The pIC50 was 6.70.

What about the pIC50 [3] of the same molecule?
The pIC50 was 7.15.

What about the pIC50 [4] of the same molecule?
Its pIC50 is 7.05.

And the pIC50 [5]?
Its pIC50 is 7.30.

What about the pIC50 ([6]; SK-MEL-2, SKMEL2, 72 h, MTT, read-out: IC50) of the same molecule?
The pIC50 was 7.15.

And the pIC50 [7]?
Its pIC50 is 7.21.

What about the pIC50 [8] of the same molecule?
Its pIC50 is 7.05.

What about the pIC50 [9] of the same molecule?
Its pIC50 is 7.19.

And the pIC50 [10]?
Its pIC50 is 7.40.

What about the pIC50 [11] of the same molecule?
Its pIC50 is 7.15.

What about the pIC50 [12] of the same molecule?
The pIC50 was 6.16.

What about the “time within which compound reacted with GSH” value [13] of the same molecule?
Its value is ≤ 30 min.

What about the “Average Area Ratio with GSH” value [13, 14] of the same molecule?
Its value is 1.00E+02.

And the “Average Area Ratio without GSH” value ([13]; 0 h, phosphate buffer)?
Its value is 1.00E+02.

What about the “Average Area Ratio Normalized” value ([13]; 0 h) of the same molecule?
The value was 8.68E+01.

And the remaining at 1.5 h, 20 μM [13, 15]?
The remaining at 1.5 h, 20 μM was 10%.

What about the half-life at 20 μM [13, 16] of the same molecule?
Its half-life at 20 μM is 12.2 min.

And the “Average Area Ratio with GSH” value ([13]; 0.33 h, 1 mM GSH)?
Its value is 1.76E+01.

And the “Average Area Ratio without GSH” value ([13]; 0.33 h, phosphate buffer)?
The value was 1.03E+02.

What about the “Average Area Ratio Normalized” value ([13]; 0.33 h) of the same molecule?
The value was 1.48E+01.

What about the “Average Area Ratio with GSH” value ([13]; 0.66 h, 1 mM GSH) of the same molecule?
Its value is 1.18E+01.

What about the “Average Area Ratio without GSH” value ([13]; 0.66 h, phosphate buffer) of the same molecule?
Its value is 1.13E+02.

And the “Average Area Ratio Normalized” value ([13]; 0.66 h)?
The value was 9.11E+00.

And the “Average Area Ratio with GSH” value ([13]; 1 h, 1 mM GSH)?
Its value is 1.20E+01.

What about the “Average Area Ratio without GSH” value ([13]; 1 h, phosphate buffer) of the same molecule?
The value was 1.18E+02.

And the “Average Area Ratio Normalized” value ([13]; 1 h)?
Its value is 8.78E+00.

What about the “Average Area Ratio with GSH” value ([13]; 1.5 h, 1 mM GSH) of the same molecule?
Its value is 1.30E+01.

What about the “Average Area Ratio without GSH” value ([13]; 1.5 h, phosphate buffer) of the same molecule?
Its value is 1.18E+02.

What about the “Average Area Ratio Normalized” value ([13]; 1.5 h) of the same molecule?
Its value is 9.58E+00.

And the half-life at 20 μM [13, 17]?
Its half-life at 20 μM is > 360 min.

What about the remaining at 1.5 h, 20 μM [13, 18] of the same molecule?
Its remaining at 1.5 h, 20 μM is 118%.

From paper PMC11239005, “Preclinical studies of RA475, a guanidine-substituted spirocyclic candidate RPN13/ADRM1 inhibitor for treatment of ovarian cancer” (PLOS ONE, 2024)
